# PMC4604124, “In Vitro Characterization of the Pharmacological Properties of the Anti-Cancer Chelator, Bp4eT, and Its Phase I Metabolites” (PLoS ONE, 2015)
# System: MCF-7 cells
# Assay: Epifluorescence microscopy, triple staining MDC / annexin V-FITC / propidium iodide
# Assay type: cell-based, human
# Conditions: Bp4eT 10 or 100 nM 72 h, rapamycin 1 nM 30 min
# Protocol: Markers used to assess autophagy/apoptosis/necrosis in MCF-7 cells and changes of lysosomal and mitochondrial morphology were observed using an Eclipse Ti inverted epifluorescence microscope (Nikon, Tokyo, Japan), that was equipped with a cooled digital camera Zyla 5.5 sCMOS (Andor Technology, Belfast, UK), and NIS-Elements C 4.1 software (Laboratory Imaging, Prague, Czech Republic). The MCF-7 cells were seeded in 6-well plates with cover slips on the bottom at a density of 150,000 cells/well and incubated as described above in the presence or absence of 10 or 100 nM Bp4eT.
# To assess the mechanism of cellular death after incubation with Bp4eT, triple staining with monodansyl cadaverine (MDC; 50 μM; λex = 390 nm; λem = 455 nm; Sigma-Aldrich), annexin V-FITC (5 μL/mL; λex = 495 nm; λem = 519 nm; Invitrogen, Carlsbad, CA, USA), and propidium iodide (5 μg/mL; λex = 560 nm; λem = 630 nm) was used. MDC is a marker of autophagosomes and lysosomes and results in blue fluorescence. As a positive control for autophagy, MCF-7 cells were incubated with 1 nM rapamycin (Sigma-Aldrich) for 30 min/37°C, which is an established inducer of autophagy. Annexin V has high affinity to phosphatidylserine, which is translocated to the surface of both early- and late-stage apoptotic cells. […]
compound,measurement,value
"CO[C@H]1C[C@@H]2CC[C@@H](C)[C@@](O)(O2)C(=O)C(=O)N2CCCC[C@H]2C(=O)O[C@H]([C@H](C)C[C@@H]2CC[C@@H](O)[C@H](OC)C2)CC(=O)[C@H](C)/C=C(\C)[C@@H](O)[C@@H](OC)C(=O)[C@H](C)C[C@H](C)/C=C/C=C/C=C/1C [rapamycin, reference compound]","Staining for autophagy/apoptosis/necrosis (MDC, annexin V-FITC, propidium iodide)","enlarged cells with ample granular, cytoplasmic MDC staining"
